The numbers were not newly measured in patent publication US20090318293A1, “AGRICULTURAL COMPOSITION” (PLANT IMPACT PLC, priority 2005, published 2009), which cites them from elsewhere.

The test system of this data set is cotyledon growth, chlorophyll biosynthesis and cell elongation. The note with it: on cotyledon growth, chlorophyll biosynthesis and cell elongation in the systems studied.

The structures appear in SMILES notation.

As to `Cn1c(=O)c2c(ncn2C)n(C)c1=O` [caffeine, 3,7-Dihydro-1,3,7-trimethyl-1H-purine-2,6-dione], the cytokinin-like effect entry is recorded as “weak cytokinin-like effect”.
